# Measurements taken from paper PMC12236907, “A Natural Depsipeptide Antibiotic that Targets the E site of the Bacterial Ribosome” (Research Square, 2025).
# Where a SMILES comes first, the peptide text is derived from it. Bridges are numbered along the chain shown (N, C = ends). [ ]: non-standard residue; d: D form. dOrn = NCCC[C@@H](N)C(=O)O
# Tests used:
# [1] = tested on: multi-drug-resistant Enterobacteriaceae
# [2] = Murine infection model; format: in vivo; settings: initial attempts
# [3] = tested on: bacterial membrane; test: Membrane permeabilization (propidium iodide uptake and NPN assays); format: cell-based; settings: E. coli BW25113; PI 4 μM up to 10×MIC (80 μg/ml), NPN 10 μM; 30 min, room temperature
# Description: E. coli BW25113 cells were prepared according to the method for time-dependent killing and mixed with propidium iodide at a final concentration of 4 μM. A 190 μl aliquot of the cell suspension was added to the wells of a 96-well black-wall plate, followed by the addition of 10 μl of compounds at different concentrations up to 10×MIC (80 μg/ml). Colistin (5 μg/ml) was included as a positive control. Fluorescence was measured at an excitation/emission wavelength of 535/617 nm for 30 min at room temperature using a Synergy Microplate Reader (Biotek).
# An overnight culture of E. coli BW25113 was subcultured into fresh MOPS minimal medium and allowed to grow until reaching mid-exponential phase. The culture was then diluted to an OD 600 of 0.1–0.2 in the same medium and supplemented with 10 μM NPN dye (prepared from a 20 mM stock solution in acetone). A volume of 190 μl of this cell suspension was combined with 10 μl of test compounds at various concentrations in a black 96-well plate. Water served as the vehicle control, as MKM-A was dissolved in water (adjust the vehicle accordingly based on the solubility of your compound). Colistin at 5 μg/ml was included as a positive control. Fluorescence was measured over a 30 min period at room temperature using a microplate reader, with readings taken every 0.5–1 min at an excitation/emission wavelength of 350/420 nm.
# [4] = tested on: E. coli ribosome; test: In vitro translocation assay; format: biochemical; settings: mRNA MFK; 50 μM MKM or 250 μM negamycin; 1 μM E. coli ribosomes
# Description: In vitro translocation assay was carried out using the model mRNA MFK (Supplementary Table 7) as described in the reference. The mRNA was prepared by in vitro transcription of a PCR product amplified using the primers MF_F1, MF_F2, and MF_R (Supplementary Table 6). A 4.5 μl reaction containing 1 μM E. coli ribosomes, 0.5 μM mRNA, 1 μM tRNAi^Met, 0.5 μM radiolabelled NV1 primer (Supplementary Table 6), 2 U/μl RiboLock RNase Inhibitor (Thermo), and antibiotic tested (50 μM MKM or 250 μM negamycin) in Pure System Buffer (PSB; 9 mM Mg(CH3COO)2, 5 mM K3PO4, 95 mM potassium glutamate, 5 mM NH4Cl, 0.5 mM CaCl2, 1 mM spermidine, 8 mM putrescine, 1 mM dithiothreitol, pH 7.3)[87] was incubated for 20 min at 37°C. Then N-acetyl-Phe-N-tRNAPhe, in which amino acid is attached to the tRNA’s A3’ hydroxyl via an amide bond, was added to the final concentration of 2 μM followed by 10 min incubation at 37°C. After addition of the E. coli EF-G and GTP to the final concentrations of 0.2 μM and 533 μM, respectively and incubation for 5 min at 30°C, 1 μl of the mixture of AMV reverse transcriptase (Roche) and dNTPs (2.1 U/μl AMV RT and 2 mM dNTPs in PSB) was added, and the reactions were incubated for another 5 min at 30°C. […]
# [5] = tested on: K. pneumoniae C1559; test: Ex vivo efficacy in human blood; format: cell-based, Klebsiella pneumoniae; settings: K. pneumoniae C1559, 10^5 cfu/ml, 5×MIC of MKM, six hours, 37°C; three biological experiments
# Description: Human blood was procured from BioIVT (New York, USA). […] CFUs were determined by serial dilution and cultivation on agar.
# [6] = tested on: K. pneumoniae C1559; test: Time-dependent killing assay, K. pneumoniae; format: cell-based, Klebsiella pneumoniae; settings: K. pneumoniae C1559, MHB, 5×MIC (80 μg/ml), 37°C, 0-24 h; mean of three biological replicates
# Description: E. coli BW25113 and Klebsiella pneumoniae C1559 were grown overnight in 5 ml of cation-adjusted Mueller-Hinton Broth. The cultures were then inoculated into fresh medium to achieve an OD600 of 0.1, corresponding to a concentration of 10^8 CFU/ml. […] Samples were taken at 0 h, 3 h, 6 h, and 24 h post-incubation, plated on MHA plates, and incubated for 20–24 hours at 37°C. Colony counts were used to determine the log reduction in CFU/ml, comparing treated strains to untreated control samples.
# [7] = tested on: E. coli strain SQ110ΔtolC::pZsbmA; settings: agar with 4×MIC of MKM (32 μg/ml)
# [8] = tested on: E. coli; test: Antimicrobial activity, E. coli; format: cell-based, Escherichia coli
# [9] = tested on: E. coli BW25113
# [10] = tested on: E. coli BW25113; test: Bacterial cell morphology by scanning electron microscopy; format: cell-based; settings: E. coli BW25113, 32 and 80 μg/ml, MOPS minimal medium, 1 h at 37°C
# Description: After treatment, the cells were centrifuged at 5,000×g for 5 min, then resuspended in a fixative solution (4% glutaraldehyde in PBS, pH 7.4) at 0.1× the original volume. The cells were fixed at room temperature for 1 h and stored overnight at 4 °C. The following day, 50 μl of the fixed cells were transferred onto coverslips coated with poly-L-lysine, dehydrated through a series of ethanol treatments, and dried using a critical point dryer. The samples were then examined with a scanning electron microscope (TESCAN VEGA-II LSU) equipped with an X-MAX 80mm^2 EDS detector, and images were captured using INCA software.
# [11] = highly resistant mutants of E. coli BW25113 selected by passaging
smiles,measurement,setting,value
"C[C@@H](O)[C@@H]1NC(=O)[C@@H](CCCNC(=N)N)NC(=O)[C@@H](CCCNC(=N)N)NC(=O)[C@@H](CC(N)=O)NC(=O)[C@@H](NC(=O)[C@@H](Cc2ccccc2)NC(=O)[C@@H](CCCN)NC(=O)[C@H](N)CCCNC(=N)N)[C@@H](C)OC(=O)[C@H](Cc2c[nH]cn2)NC1=O [MKM, manikomycin A] (H-[dR][dOrn][dF]T[dN][dR][dR]TH; ester 4-C)",killing of multi-drug-resistant Enterobacteriaceae,[1],can kill
same,protective effect in murine infection model,[2],did not yield a strong protective effect
same,membrane permeabilization / disruption,[3],failed to permeabilize or distrupt the bacterial membrane
same,inhibition of EF-G-dependent translocation,[4],notably inhibited
same,bacterial eradication in human blood,[5],complete eradication
same,time-kill effect,[6],bactericidal
same,frequency of resistant colonies,[7],~ 10^−7
same,antimicrobial activity,[8],selective antimicrobial activity
same,increase in MIC,[9]; deletion of genes encoding components of the transporter YejABEF,2–8 fold
same,MIC,[9]; [11],512 to 1024 µg/mL
same,increase in MIC over parental strain,[9]; [11],16- to 32 fold
same,bacterial cell morphology,[10],no detectable changes in bacterial cell morphology
